According to US9938273B2 (Plexxikon Inc., priority 2015, dated 2018):

Key:
FLT3-D835Y = biological target: T1, FLT3-D835Y (Homo sapiens, UniProt P36888, D835Y); assay: AlphaScreen kinase assay with recombinant enzyme, FLT3-D835Y; assay type: biochemical; details: 8pt, GMean
T1 construct: purchased Invitrogen PV3967
T1 sequence (P36888 27-993 D835Y): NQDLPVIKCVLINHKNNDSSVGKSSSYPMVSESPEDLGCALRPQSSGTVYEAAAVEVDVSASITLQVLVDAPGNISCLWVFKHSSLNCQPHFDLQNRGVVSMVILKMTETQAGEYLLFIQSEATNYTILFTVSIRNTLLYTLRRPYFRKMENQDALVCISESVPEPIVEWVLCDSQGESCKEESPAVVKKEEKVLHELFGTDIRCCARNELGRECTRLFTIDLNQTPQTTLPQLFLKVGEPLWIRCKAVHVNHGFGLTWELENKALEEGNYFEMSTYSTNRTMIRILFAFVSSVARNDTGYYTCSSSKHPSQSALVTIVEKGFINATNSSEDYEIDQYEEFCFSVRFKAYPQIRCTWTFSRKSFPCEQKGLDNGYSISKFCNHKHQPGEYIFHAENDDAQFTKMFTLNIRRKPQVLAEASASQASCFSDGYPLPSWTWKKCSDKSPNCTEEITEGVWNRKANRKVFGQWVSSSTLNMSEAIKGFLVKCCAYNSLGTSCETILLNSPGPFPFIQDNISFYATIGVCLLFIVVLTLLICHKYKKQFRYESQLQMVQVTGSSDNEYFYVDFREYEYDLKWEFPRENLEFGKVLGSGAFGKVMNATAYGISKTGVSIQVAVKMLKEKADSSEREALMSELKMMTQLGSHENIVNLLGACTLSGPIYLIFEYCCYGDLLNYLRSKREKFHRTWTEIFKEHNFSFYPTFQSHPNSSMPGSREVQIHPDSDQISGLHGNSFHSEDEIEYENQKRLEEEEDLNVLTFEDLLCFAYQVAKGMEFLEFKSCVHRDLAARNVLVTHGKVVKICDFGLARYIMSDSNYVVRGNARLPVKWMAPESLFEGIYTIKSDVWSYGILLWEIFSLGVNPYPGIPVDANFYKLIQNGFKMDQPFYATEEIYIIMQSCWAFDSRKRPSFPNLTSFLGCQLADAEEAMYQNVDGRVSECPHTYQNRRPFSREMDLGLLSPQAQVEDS
In short: (§1)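 Inhibition was measured as a drop in AlphaScreen signal arising from phosphotyrosine-bead capture of a biotinylated poly(Glu4-Tyr) peptide (30 nM) phosphorylated by recombinant kinase. For IC50 work the stated final concentration was 10 μM for the FLT3 mutants and 100 μM for c-KIT.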

c-KIT = biological target: T2, c-KIT (Homo sapiens, UniProt P10721); assay: AlphaScreen kinase assay with recombinant enzyme, c-KIT; assay type: biochemical; details: 100ATP, 8pt, GMean
T2 construct: purchased Millipore 14-559K
T2 sequence (P10721 26-976): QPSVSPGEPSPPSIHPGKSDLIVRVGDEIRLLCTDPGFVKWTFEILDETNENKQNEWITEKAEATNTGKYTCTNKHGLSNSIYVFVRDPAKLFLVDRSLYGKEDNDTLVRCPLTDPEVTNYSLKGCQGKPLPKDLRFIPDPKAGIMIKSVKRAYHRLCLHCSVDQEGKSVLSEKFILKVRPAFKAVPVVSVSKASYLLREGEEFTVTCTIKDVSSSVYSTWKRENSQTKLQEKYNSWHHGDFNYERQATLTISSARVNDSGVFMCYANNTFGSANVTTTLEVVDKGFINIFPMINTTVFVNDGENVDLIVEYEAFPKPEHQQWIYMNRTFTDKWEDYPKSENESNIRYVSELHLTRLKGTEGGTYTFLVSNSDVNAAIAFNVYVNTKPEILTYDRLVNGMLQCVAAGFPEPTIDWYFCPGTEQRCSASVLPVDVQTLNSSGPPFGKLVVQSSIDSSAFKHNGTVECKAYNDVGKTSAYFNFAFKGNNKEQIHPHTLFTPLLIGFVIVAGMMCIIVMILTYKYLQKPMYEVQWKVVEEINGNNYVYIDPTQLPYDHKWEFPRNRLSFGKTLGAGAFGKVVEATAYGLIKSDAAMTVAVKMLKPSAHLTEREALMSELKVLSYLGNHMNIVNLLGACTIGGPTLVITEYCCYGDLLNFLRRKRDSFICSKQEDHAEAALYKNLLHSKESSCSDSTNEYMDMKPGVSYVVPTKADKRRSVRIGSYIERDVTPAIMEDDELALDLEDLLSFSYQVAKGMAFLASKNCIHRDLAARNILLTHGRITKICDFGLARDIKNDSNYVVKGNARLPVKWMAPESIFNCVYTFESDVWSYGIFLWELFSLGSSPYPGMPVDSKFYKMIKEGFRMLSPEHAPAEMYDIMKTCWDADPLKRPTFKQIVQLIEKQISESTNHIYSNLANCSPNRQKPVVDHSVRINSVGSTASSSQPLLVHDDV
In short: as §1

| Structure (SMILES) | IC50 (FLT3-D835Y) | IC50 (c-KIT) |
| --- | --- | --- |
| CC(=O)NC1CCN(C(=O)c2cccc(-c3cnc4[nH]c(-c5ccc(F)cc5)cc4c3)c2)CC1 [Compound P-0001, N-[1-[3-[2-(4-fluorophenyl)-1H-pyrrolo[2,3-b]pyridin-5-yl]benzoyl]-4-piperidyl]acetamide] | 10 to 50 µM | 0.0001 to 10 µM |
| CON(C)C(=O)c1cccc(-c2cnc3[nH]c(-c4ccccc4)cc3c2)c1 [Compound P-0002, N-methoxy-N-methyl-3-(2-phenyl-1H-pyrrolo[2,3-b]pyridin-5-yl)benzamide] | 0.0001 to 10 µM | 0.0001 to 10 µM |
| NC1CN(C(=O)c2n[nH]c3ccc(-c4cnc5[nH]c(-c6ccccc6)cc5c4)cc23)C1 [Compound P-0029, (3-aminoazetidin-1-yl)-[5-(2-phenyl-1H-pyrrolo[2,3-b]pyridin-5-yl)-1H-indazol-3-yl]methanone] | 0.0001 to 10 µM | 0.0001 to 10 µM |
| CNC(=O)C1CCN(C(=O)c2cccc(-c3cnc4[nH]c(-c5ccccc5)cc4c3)n2)CC1 [Compound P-0030, N-methyl-1-[6-(2-phenyl-1H-pyrrolo[2,3-b]pyridin-5-yl)pyridine-2-carbonyl]piperidine-4-carboxamide] | 0.0001 to 10 µM | 0.0001 to 10 µM |
| CCNC(=O)NC1CCN(C(=O)c2cccc(-c3cnc4[nH]c(-c5ccccc5)cc4c3)n2)CC1 [Compound P-0031, 1-ethyl-3-[1-[6-(2-phenyl-1H-pyrrolo[2,3-b]pyridin-5-yl)pyridine-2-carbonyl]-4-piperidyl]urea] | 0.0001 to 10 µM | 0.0001 to 10 µM |
| CS(=O)(=O)NC1CCN(C(=O)c2cccc(-c3cnc4[nH]c(-c5ccccc5)cc4c3)n2)CC1 [Compound P-0032, N-[1-[6-(2-phenyl-1H-pyrrolo[2,3-b]pyridin-5-yl)pyridine-2-carbonyl]-4-piperidyl]methanesulfonamide] | 0.0001 to 10 µM | 10 to 50 µM |
| Cc1ccc(-c2cnc3[nH]c(-c4ccccc4)cc3c2)nc1C(=O)N1CCC(N)CC1 [Compound P-0033, (4-amino-1-piperidyl)-[3-methyl-6-(2-phenyl-1H-pyrrolo[2,3-b]pyridin-5-yl)-2-pyridyl]methanone] | 0.0001 to 10 µM | 0.0001 to 10 µM |
| NC1CCN(c2cccc3ccc(-c4cnc5[nH]c(-c6ccccc6)cc5c4)nc23)CC1 [Compound P-0034, 1-[2-(2-phenyl-1H-pyrrolo[2,3-b]pyridin-5-yl)-8-quinolyl]piperidin-4-amine] | 0.0001 to 10 µM | 0.0001 to 10 µM |
| Cc1ccc(-c2cnc3[nH]c(-c4ccccc4)cc3c2)cc1C(=O)N1CCC(N)CC1 [Compound P-0035, (4-amino-1-piperidyl)-[2-methyl-5-(2-phenyl-1H-pyrrolo[2,3-b]pyridin-5-yl)phenyl]methanone] | 0.0001 to 10 µM | 0.0001 to 10 µM |
| N[C@H]1CCN(C(=O)c2cccc(-c3cnc4[nH]c(-c5ccccc5)cc4c3)c2)C1 [Compound P-0036, [(3S)-3-aminopyrrolidin-1-yl]-[3-(2-phenyl-1H-pyrrolo[2,3-b]pyridin-5-yl)phenyl]methanone] | 0.0001 to 10 µM | 0.0001 to 10 µM |
| NC1CCN(C(=O)c2cc(-c3cnc4[nH]c(-c5ccccc5)cc4c3)ccn2)CC1 [Compound P-0038, (4-amino-1-piperidyl)-[4-(2-phenyl-1H-pyrrolo[2,3-b]pyridin-5-yl)-2-pyridyl]methanone] | 0.0001 to 10 µM | 0.0001 to 10 µM |
| O=C(NC1CCNCC1)c1n[nH]c2ccc(-c3cnc4[nH]c(-c5ccccc5)cc4c3)cc12 [Compound P-0039, 5-(2-phenyl-1H-pyrrolo[2,3-b]pyridin-5-yl)-N-(4-piperidyl)-1H-indazole-3-carboxamide] | 0.0001 to 10 µM | 0.0001 to 10 µM |
| CNC1CCN(C(=O)c2cccc(-c3cnc4[nH]c(-c5ccccc5)cc4c3)n2)CC1 [Compound P-0041, [4-(methylamino)-1-piperidyl]-[6-(2-phenyl-1H-pyrrolo[2,3-b]pyridin-5-yl)-2-pyridyl]methanone] | 0.0001 to 10 µM | 0.0001 to 10 µM |
| NC1CCN(C(=O)c2c[nH]c3ccc(-c4cnc5[nH]c(-c6ccccc6)cc5c4)cc23)CC1 [Compound P-0042, (4-amino-1-piperidyl)-[5-(2-phenyl-1H-pyrrolo[2,3-b]pyridin-5-yl)-1H-indol-3-yl]methanone] | 0.0001 to 10 µM | 0.0001 to 10 µM |
| O=C(c1cccc(-c2cnc3[nH]c(-c4ccccc4)cc3c2)n1)C1CCNCC1 [Compound P-0043, [6-(2-phenyl-1H-pyrrolo[2,3-b]pyridin-5-yl)-2-pyridyl]-(4-piperidyl)methanone] | 0.0001 to 10 µM | 0.0001 to 10 µM |
| CNC1CCN(C(=O)c2n[nH]c3ccc(-c4cnc5[nH]c(-c6ccccc6)cc5c4)cc23)CC1 [Compound P-0044, [4-(methylamino)-1-piperidyl]-[5-(2-phenyl-1H-pyrrolo[2,3-b]pyridin-5-yl)-1H-indazol-3-yl]methanone] | 0.0001 to 10 µM | 0.0001 to 10 µM |
| O=C(NC1CCNC1)c1cccc(-c2cnc3[nH]c(-c4ccccc4)cc3c2)n1 (centres unmarked) [Compound P-0045, 6-(2-phenyl-1H-pyrrolo[2,3-b]pyridin-5-yl)-N-pyrrolidin-3-yl-pyridine-2-carboxamide] | 0.0001 to 10 µM | 0.0001 to 10 µM |
| N[C@H]1CCN(C(=O)c2cc(-c3cnc4[nH]c(-c5ccccc5)cc4c3)ccn2)C1 [Compound P-0046, [(3S)-3-aminopyrrolidin-1-yl]-[4-(2-phenyl-1H-pyrrolo[2,3-b]pyridin-5-yl)-2-pyridyl]methanone] | 0.0001 to 10 µM | 0.0001 to 10 µM |
| NC1CCC(C(=O)N2Cc3c(cccc3-c3cnc4[nH]c(-c5ccccc5)cc4c3)C2=O)C1 (centres unmarked) [Compound P-0047, 2-(3-aminocyclopentanecarbonyl)-4-(2-phenyl-1H-pyrrolo[2,3-b]pyridin-5-yl)isoindolin-1-one] | 0.0001 to 10 µM | 0.0001 to 10 µM |
| N[C@H]1CCN(C(=O)c2csc(-c3cnc4[nH]c(-c5ccccc5)cc4c3)n2)C1 [Compound P-0048, [(3S)-3-aminopyrrolidin-1-yl]-[2-(2-phenyl-1H-pyrrolo[2,3-b]pyridin-5-yl)thiazol-4-yl]methanone] | 10 to 50 µM |  |
| c1ccc(-c2cc3cc(-c4ccc5[nH]nc(NC6CNC6)c5c4)cnc3[nH]2)cc1 [Compound P-0053, N-(azetidin-3-yl)-5-(2-phenyl-1H-pyrrolo[2,3-b]pyridin-5-yl)-1H-indazol-3-amine] | 0.0001 to 10 µM | 0.0001 to 10 µM |
| c1ccc(-c2cc3cc(-c4ccc5[nH]nc(NC6CCNCC6)c5c4)cnc3[nH]2)cc1 [Compound P-0056, 5-(2-phenyl-1H-pyrrolo[2,3-b]pyridin-5-yl)-N-(4-piperidyl)-1H-indazol-3-amine] | 0.0001 to 10 µM | 0.0001 to 10 µM |
| N=C(N)N1CCN(C(=O)c2cccc(-c3cnc4[nH]c(-c5ccccc5)cc4c3)n2)CC1 [Compound P-0057, 4-[6-(2-phenyl-1H-pyrrolo[2,3-b]pyridin-5-yl)pyridine-2-carbonyl]piperazine-1-carboxamidine] | 0.0001 to 10 µM | 0.0001 to 10 µM |
| CN(C(=O)c1cccc(-c2cnc3[nH]c(-c4ccccc4)cc3c2)n1)C1CCNC1 (centres unmarked) [Compound P-0076, N-methyl-6-(2-phenyl-1H-pyrrolo[2,3-b]pyridin-5-yl)-N-pyrrolidin-3-yl-pyridine-2-carboxamide] | 0.0001 to 10 µM |  |
| CNC1CCCN(C(=O)c2cccc(-c3cnc4[nH]c(-c5ccccc5)cc4c3)n2)C1 (centres unmarked) [Compound P-0080, [3-(methylamino)-1-piperidyl]-[6-(2-phenyl-1H-pyrrolo[2,3-b]pyridin-5-yl)-2-pyridyl]methanone] | 0.0001 to 10 µM |  |
| CC1(N)CCN(C(=O)c2cccc(-c3cnc4[nH]c(-c5ccccc5)cc4c3)n2)CC1 [Compound P-0081, (4-amino-4-methyl-1-piperidyl)-[6-(2-phenyl-1H-pyrrolo[2,3-b]pyridin-5-yl)-2-pyridyl]methanone] | 0.0001 to 10 µM |  |
| CC1(N)CCCN(C(=O)c2cccc(-c3cnc4[nH]c(-c5ccccc5)cc4c3)n2)C1 (centres unmarked) [Compound P-0082, (3-amino-3-methyl-1-piperidyl)-[6-(2-phenyl-1H-pyrrolo[2,3-b]pyridin-5-yl)-2-pyridyl]methanone] | 0.0001 to 10 µM |  |
| N[C@@H]1CN(C(=O)c2cccc(-c3cnc4[nH]c(-c5ccccc5)cc4c3)n2)CC12CC2 [Compound P-0083, [(7S)-7-amino-5-azaspiro[2.4]heptan-5-yl]-[6-(2-phenyl-1H-pyrrolo[2,3-b]pyridin-5-yl)-2-pyridyl]methanone] | 0.0001 to 10 µM |  |
